From ChEMBL document CHEMBL3885881, “DrugMatrix”

Species on record: Rattus norvegicus
Test: DrugMatrix - Regimen: Daily Repeat
Type: toxicity, organism-based, Sprague-Dawley
Set-up: regimen Daily Repeat, gender Male, age 6-8 weeks
Settings: in vivo, po, route oral GAVAGE, vehicle .5 % CMC; for ABSOLUTE BASOPHIL / ABSOLUTE EOSINOPHIL / ABSOLUTE LYMPHOCYTE / ABSOLUTE MONOCYTE / ABSOLUTE SEGMENTED NEUTROPHIL / BASOPHIL / EOSINOPHIL / ERYTHROCYTE COUNT / HEMATOCRIT / HEMOGLOBIN / LEUKOCYTE COUNT / LYMPHOCYTE / MEAN CORPUSCULAR HEMOGLOBIN / MEAN CORPUSCULAR HEMOGLOBIN CONCENTRATION / MEAN CORPUSCULAR VOLUME / MONOCYTE / NEUTROPHIL / NUCLEATED RED BLOOD CELLS / PLATELET COUNT: tissue Blood; for ALANINE AMINOTRANSFERASE / ALBUMIN / ALKALINE PHOSPHATASE / ASPARTATE AMINOTRANSFERASE / BLOOD UREA NITROGEN / CARBON DIOXIDE / CHLORIDE / CHOLESTEROL / CREATINE PHOSPHOKINASE / CREATININE / GLUCOSE / LACTATE DEHYDROGENASE / LIPASE / PHOSPHORUS / POTASSIUM / SODIUM / TOTAL BILIRUBIN / TOTAL PROTEIN / URIC ACID: tissue Plasma
[1] = 100 mg/kg, 72 h, dose level Low, time 3 day
[2] = 100 mg/kg, 120 h, dose level Low, time 5 day
[3] = 2000 mg/kg, 72 h, dose level High, time 3 day
[4] = 2000 mg/kg, 120 h, dose level High, time 5 day

## C#C[C@]1(O)CC[C@H]2[C@@H]3CCC4=Cc5oncc5C[C@]4(C)[C@H]3CC[C@@]21C [DANAZOL]
[1]
  ABSOLUTE BASOPHIL: 0 CELLS/uL
  ABSOLUTE EOSINOPHIL: 39 CELLS/uL
  ABSOLUTE LYMPHOCYTE: 10714 CELLS/uL
  ABSOLUTE MONOCYTE: 124 CELLS/uL
  ABSOLUTE SEGMENTED NEUTROPHIL: 1823 CELLS/uL
  BASOPHIL: 0%
  EOSINOPHIL: 0.33%
  ERYTHROCYTE COUNT: 5.54 x10E6/uL
  HEMATOCRIT: 34.17%
  HEMOGLOBIN: 13.43 G/DL
  LEUKOCYTE COUNT: 12.7 x10E3/uL
  LYMPHOCYTE: 84.33%
  MEAN CORPUSCULAR HEMOGLOBIN: 24.3 pg
  MEAN CORPUSCULAR HEMOGLOBIN CONCENTRATION: 39.3 G/DL
  MEAN CORPUSCULAR VOLUME: 61.77 fL
  MONOCYTE: 1%
  NEUTROPHIL: 14.33%
  NUCLEATED RED BLOOD CELLS: 0 /100WBC
  PLATELET COUNT: 1192.67 x10E3/uL
  ALANINE AMINOTRANSFERASE: 44.33 u/L
  ALBUMIN: 4.17 G/DL
  ALKALINE PHOSPHATASE: 377 u/L
  ASPARTATE AMINOTRANSFERASE: 76.33 u/L
  BLOOD UREA NITROGEN: 14.67 mg/dL
  CARBON DIOXIDE: 25.33 mmol/L
  CHLORIDE: 102 MEQ/L
  CHOLESTEROL: 55 mg/dL
  CREATINE PHOSPHOKINASE: 401.33 u/L
  CREATININE: 0.17 mg/dL
  GLUCOSE: 163.33 mg/dL
  LACTATE DEHYDROGENASE: 137 u/L
  LIPASE: 10 u/L
  PHOSPHORUS: 12.07 mg/dL
  POTASSIUM: 6.65 MEQ/L
  SODIUM: 143.7 MEQ/L
  TOTAL BILIRUBIN: 0.2 mg/dL
  TOTAL PROTEIN: 5.97 G/DL
  URIC ACID: 1.73 mg/dL
[2]
  ABSOLUTE BASOPHIL: 0 CELLS/uL
  ABSOLUTE EOSINOPHIL: 63 CELLS/uL
  ABSOLUTE LYMPHOCYTE: 13104.67 CELLS/uL
  ABSOLUTE MONOCYTE: 130.33 CELLS/uL
  ABSOLUTE SEGMENTED NEUTROPHIL: 1568.67 CELLS/uL
  BASOPHIL: 0%
  EOSINOPHIL: 0.33%
  ERYTHROCYTE COUNT: 5.51 x10E6/uL
  HEMATOCRIT: 33.67%
  HEMOGLOBIN: 13.33 G/DL
  LEUKOCYTE COUNT: 14.87 x10E3/uL
  LYMPHOCYTE: 88%
  MEAN CORPUSCULAR HEMOGLOBIN: 24.2 pg
  MEAN CORPUSCULAR HEMOGLOBIN CONCENTRATION: 39.57 G/DL
  MEAN CORPUSCULAR VOLUME: 61.07 fL
  MONOCYTE: 1%
  NEUTROPHIL: 10.67%
  NUCLEATED RED BLOOD CELLS: 0 /100WBC
  PLATELET COUNT: 1135.67 x10E3/uL
  ALANINE AMINOTRANSFERASE: 59.67 u/L
  ALBUMIN: 4.07 G/DL
  ALKALINE PHOSPHATASE: 404 u/L
  ASPARTATE AMINOTRANSFERASE: 88.67 u/L
  BLOOD UREA NITROGEN: 15.67 mg/dL
  CARBON DIOXIDE: 28 mmol/L
  CHLORIDE: 99.67 MEQ/L
  CHOLESTEROL: 47.67 mg/dL
  CREATINE PHOSPHOKINASE: 326.33 u/L
  CREATININE: 0.2 mg/dL
  GLUCOSE: 144 mg/dL
  LACTATE DEHYDROGENASE: 320.33 u/L
  LIPASE: 9 u/L
  PHOSPHORUS: 10.93 mg/dL
  POTASSIUM: 6.55 MEQ/L
  SODIUM: 142.4 MEQ/L
  TOTAL BILIRUBIN: 0.23 mg/dL
  TOTAL PROTEIN: 5.87 G/DL
  URIC ACID: 1.63 mg/dL
[3]
  ABSOLUTE BASOPHIL: 0 CELLS/uL
  ABSOLUTE EOSINOPHIL: 36.33 CELLS/uL
  ABSOLUTE LYMPHOCYTE: 8482.33 CELLS/uL
  ABSOLUTE MONOCYTE: 63 CELLS/uL
  ABSOLUTE SEGMENTED NEUTROPHIL: 1351.67 CELLS/uL
  BASOPHIL: 0%
  EOSINOPHIL: 0.33%
  ERYTHROCYTE COUNT: 6.02 x10E6/uL
  HEMATOCRIT: 35.6%
  HEMOGLOBIN: 13.97 G/DL
  LEUKOCYTE COUNT: 9.93 x10E3/uL
  LYMPHOCYTE: 85.33%
  MEAN CORPUSCULAR HEMOGLOBIN: 23.23 pg
  MEAN CORPUSCULAR HEMOGLOBIN CONCENTRATION: 39.23 G/DL
  MEAN CORPUSCULAR VOLUME: 59.17 fL
  MONOCYTE: 0.67%
  NEUTROPHIL: 13.67%
  NUCLEATED RED BLOOD CELLS: 0 /100WBC
  PLATELET COUNT: 1115.33 x10E3/uL
  ALANINE AMINOTRANSFERASE: 54.67 u/L
  ALBUMIN: 4.13 G/DL
  ALKALINE PHOSPHATASE: 331 u/L
  ASPARTATE AMINOTRANSFERASE: 125.67 u/L
  BLOOD UREA NITROGEN: 18 mg/dL
  CARBON DIOXIDE: 30 mmol/L
  CHLORIDE: 99.67 MEQ/L
  CHOLESTEROL: 51.67 mg/dL
  CREATINE PHOSPHOKINASE: 222.33 u/L
  CREATININE: 0.15 mg/dL
  GLUCOSE: 144.67 mg/dL
  LACTATE DEHYDROGENASE: 126.33 u/L
  LIPASE: 10 u/L
  PHOSPHORUS: 12 mg/dL
  POTASSIUM: 6.6 MEQ/L
  SODIUM: 143.8 MEQ/L
  TOTAL BILIRUBIN: 0.17 mg/dL
  TOTAL PROTEIN: 6.13 G/DL
  URIC ACID: 1.7 mg/dL
[4]
  ABSOLUTE BASOPHIL: 0 CELLS/uL
  ABSOLUTE EOSINOPHIL: 32.33 CELLS/uL
  ABSOLUTE LYMPHOCYTE: 11456 CELLS/uL
  ABSOLUTE MONOCYTE: 0 CELLS/uL
  ABSOLUTE SEGMENTED NEUTROPHIL: 1345 CELLS/uL
  BASOPHIL: 0%
  EOSINOPHIL: 0.33%
  ERYTHROCYTE COUNT: 5.94 x10E6/uL
  HEMATOCRIT: 35.4%
  HEMOGLOBIN: 14 G/DL
  LEUKOCYTE COUNT: 12.83 x10E3/uL
  LYMPHOCYTE: 88.67%
  MEAN CORPUSCULAR HEMOGLOBIN: 23.57 pg
  MEAN CORPUSCULAR HEMOGLOBIN CONCENTRATION: 39.57 G/DL
  MEAN CORPUSCULAR VOLUME: 59.5 fL
  MONOCYTE: 0%
  NEUTROPHIL: 11%
  NUCLEATED RED BLOOD CELLS: 0 /100WBC
  PLATELET COUNT: 1399.33 x10E3/uL
  ALANINE AMINOTRANSFERASE: 62.67 u/L
  ALBUMIN: 4.17 G/DL
  ALKALINE PHOSPHATASE: 326.67 u/L
  ASPARTATE AMINOTRANSFERASE: 68 u/L
  BLOOD UREA NITROGEN: 18.67 mg/dL
  CARBON DIOXIDE: 28.33 mmol/L
  CHLORIDE: 99.33 MEQ/L
  CHOLESTEROL: 45.33 mg/dL
  CREATINE PHOSPHOKINASE: 147.33 u/L
  CREATININE: 0.18 mg/dL
  GLUCOSE: 140.67 mg/dL
  LACTATE DEHYDROGENASE: 121 u/L
  LIPASE: 10 u/L
  PHOSPHORUS: 12.37 mg/dL
  POTASSIUM: 6.84 MEQ/L
  SODIUM: 145.03 MEQ/L
  TOTAL BILIRUBIN: 0.2 mg/dL
  TOTAL PROTEIN: 6.73 G/DL
  URIC ACID: 1.6 mg/dL
